Patent publication US20250066388A1, “1,3,4,7-TETRAHYDRO-2H-PYRROLO[3',2':5,6]PYRIDO[2,3-B][1,4]OXAZEPINE BCL-2 INHIBITORS” (AbbVie Inc., priority 2022, published 2025)

Legend:
RS4;11 cells = assay: Cell viability assay (CellTiter-Glo) in RS4;11 cells; type: cell-based; settings: 24 hours, 10% Human Serum
Experimental: The acute lymphoblastic leukemia (ALL) human cell line RS4;11 (ATCC, Manassas VA) was used as the primary human cell line to assess the cellular activity of compound of the present Examples in vitro and their efficacy in vivo. […] The acute lymphoblastic leukemia cell line Molt-4, which is derived from immature T-lymphoid cells (T-ALL), was used as a counter screen assay.
3000 Cells (0.1×10^6/mL) were seeded in each well of 384-well plate and were treated for 24 hours in a humidified chamber with 5% CO2. Cell viability was determined by CellTiter-Glo as described by the manufacturer's instructions (Promega Corporation, Madison, WI, USA).

Molt-4 cells = assay: Cell viability counter screen (CellTiter-Glo) in Molt-4 cells; type: cell-based; settings: 24 hours, 10% Human Serum
In short: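 3000 cells/well (0.1×10^6/mL) were treated with compound for 24 hours in 5% CO2. Viability read by CellTiter-Glo luminescence; Molt-4 (T-ALL) served as the counter screen to RS4;11 (ALL).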

Bcl-2 protein = Bcl-2 protein (Homo sapiens (Human), UniProt P10415); assay: TR-FRET binding assay, Bcl-2; settings: F-Bak peptide probe, GST-Bcl-2
Chain of Bcl-2 protein (P10415 other isoform, or with tags, fused parts or gaps): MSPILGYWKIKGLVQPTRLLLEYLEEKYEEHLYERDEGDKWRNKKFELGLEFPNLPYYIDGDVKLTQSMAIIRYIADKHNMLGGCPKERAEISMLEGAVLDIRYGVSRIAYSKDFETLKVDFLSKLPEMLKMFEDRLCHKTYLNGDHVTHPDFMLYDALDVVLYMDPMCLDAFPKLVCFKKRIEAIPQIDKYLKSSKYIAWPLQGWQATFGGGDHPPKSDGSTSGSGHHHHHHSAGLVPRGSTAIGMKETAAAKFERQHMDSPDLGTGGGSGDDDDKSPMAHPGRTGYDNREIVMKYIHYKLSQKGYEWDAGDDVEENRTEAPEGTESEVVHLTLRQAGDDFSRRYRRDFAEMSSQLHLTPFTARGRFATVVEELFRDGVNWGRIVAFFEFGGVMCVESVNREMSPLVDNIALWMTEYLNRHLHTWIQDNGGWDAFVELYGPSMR

Bcl-xL protein = Bcl-xL protein (Homo sapiens (Human), UniProt Q07817); assay: TR-FRET binding assay, Bcl-xL; settings: F-Bak peptide probe
Chain of Bcl-xL protein (Q07817 other isoform, or with tags, fused parts or gaps): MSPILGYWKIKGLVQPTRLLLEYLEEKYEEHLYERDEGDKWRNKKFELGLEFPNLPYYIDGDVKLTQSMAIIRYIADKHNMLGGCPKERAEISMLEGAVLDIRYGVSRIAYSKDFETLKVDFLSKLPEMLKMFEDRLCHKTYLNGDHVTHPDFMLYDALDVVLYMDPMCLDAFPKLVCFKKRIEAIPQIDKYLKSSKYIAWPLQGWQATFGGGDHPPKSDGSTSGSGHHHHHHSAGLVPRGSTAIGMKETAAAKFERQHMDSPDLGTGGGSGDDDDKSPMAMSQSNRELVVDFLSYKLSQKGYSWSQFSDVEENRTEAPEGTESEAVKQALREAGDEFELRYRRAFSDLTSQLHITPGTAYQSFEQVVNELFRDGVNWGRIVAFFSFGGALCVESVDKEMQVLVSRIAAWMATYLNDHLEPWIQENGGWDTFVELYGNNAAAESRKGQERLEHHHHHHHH

With CC1(C)CC(c2ccc(Cl)cc2)=C2CN3CCN(c4ccc(C(=O)NS(=O)(=O)c5ccc(OCC6CCOCC6)c([N+](=O)[O-])c5)c(N5CCCOc6nc7[nH]ccc7cc65)c4)C[C@H]3COCCCO[C@@H]2C1 [Example 46, 4-((4aS,10aR)-14-(4-chlorophenyl)-12,12-dimethyl-1,2,4a,5,8,9,10a,11,13,15-decahydro-7H,12H-benzo[f]pyrazino[2,1-c][1,8]dioxa[4]azacycloundecin-3(4H)-yl)-2-(3,4-dihydro-2H-pyrrolo[3′,2′:5,6]pyrido[2,3-b][1,4]oxazepin-1(7H)-yl)-N-((3-nitro-4-((tetrahydro-2H-pyran-4-yl)methoxy)phenyl)sulfonyl)benzamide] the EC50 (RS4;11 cells) was 9.36 nM, the EC50 (Molt-4 cells) was over 10000 nM and the Ki (Bcl-2 protein) was 0.202 nM. For the same compound, the Ki (Bcl-xL protein) was 21.7 nM.

CC1(C)CC(c2ccc(Cl)cc2)=C2CN3CCN(c4ccc(C(=O)NS(=O)(=O)c5ccc(NCC6(O)CCOCC6)c([N+](=O)[O-])c5)c(N5CCCOc6nc7[nH]ccc7cc65)c4)C[C@H]3COCCCO[C@@H]2C1 [Example 18, 4-((4aS,10aR)-14-(4-chlorophenyl)-12,12-dimethyl-1,2,4a,5,8,9,10a,11,13,15-decahydro-7H,12H-benzo[f]pyrazino[2,1-c][1,8]dioxa[4]azacycloundecin-3(4H)-yl)-2-(3,4-dihydro-2H-pyrrolo[3′,2′:5,6]pyrido[2,3-b][1,4]oxazepin-1(7H)-yl)-N-((4-(((4-hydroxytetrahydro-2H-pyran-4-yl)methyl)amino)-3-nitrophenyl)sulfonyl)benzamide] was tested, and the EC50 (RS4;11 cells) was 1.43 nM, the EC50 (Molt-4 cells) was 426 nM and the Ki (Bcl-2 protein) was 0.223 nM. It also gave a Ki (Bcl-xL protein) of 8.31 nM.

Compound CC1(C)CC(c2ccc(Cl)cc2)=C2CN3CCN(c4ccc(C(=O)NS(=O)(=O)c5ccc(NC[C@H]6CC[C@@](C)(O)CC6)c([N+](=O)[O-])c5)c(N5CCCOc6nc7[nH]ccc7cc65)c4)C[C@H]3COCCCO[C@@H]2C1 [Example 36, 4-((4aS,10aR)-14-(4-chlorophenyl)-12,12-dimethyl-1,2,4a,5,8,9,10a,11,13,15-decahydro-7H,12H-benzo[f]pyrazino[2,1-c][1,8]dioxa[4]azacycloundecin-3(4H)-yl)-2-(3,4-dihydro-2H-pyrrolo[3′,2′:5,6]pyrido[2,3-b][1,4]oxazepin-1(7H)-yl)-N-((4-((((1s,4s)-4-hydroxy-4-methylcyclohexyl)methyl)amino)-3-nitrophenyl)sulfonyl)benzamide] has an EC50 (RS4;11 cells) of 1.47 nM, an EC50 (Molt-4 cells) of 117 nM and a Ki (Bcl-2 protein) of 0.0607 nM. It also gave a Ki (Bcl-xL protein) of 11.1 nM.

For CO[C@H]1C[C@H](Nc2ccc(S(=O)(=O)NC(=O)c3ccc(N4CCN5CC6=C(c7ccc(Cl)cc7)CC(C)(C)C[C@H]6OCCCOC[C@@H]5C4)cc3N3CCCOc4nc5[nH]ccc5cc43)cc2[N+](=O)[O-])C1 [Example 30, 4-((4aS,10aR)-14-(4-chlorophenyl)-12,12-dimethyl-1,2,4a,5,8,9,10a,11,13,15-decahydro-7H,12H-benzo[f]pyrazino[2,1-c][1,8]dioxa[4]azacycloundecin-3(4H)-yl)-2-(3,4-dihydro-2H-pyrrolo[3′,2′:5,6]pyrido[2,3-b][1,4]oxazepin-1(7H)-yl)-N-((4-(((1r,3r)-3-methoxycyclobutyl)amino)-3-nitrophenyl)sulfonyl)benzamide], the EC50 (RS4;11 cells) was 4.1 nM, the EC50 (Molt-4 cells) was over 10000 nM and the Ki (Bcl-2 protein) was 2.58 nM. The Ki (Bcl-xL protein) was 39 nM.

CO[C@H]1C[C@H](CNc2ccc(S(=O)(=O)NC(=O)c3ccc(N4CCN5CC6=C(c7ccc(Cl)cc7)CC(C)(C)C[C@H]6OCCCOC[C@@H]5C4)cc3N3CCCOc4nc5[nH]ccc5cc43)cc2[N+](=O)[O-])C1 [Example 41, 4-((4aS,10aR)-14-(4-chlorophenyl)-12,12-dimethyl-1,2,4a,5,8,9,10a,11,13,15-decahydro-7H,12H-benzo[f]pyrazino[2,1-c][1,8]dioxa[4]azacycloundecin-3(4H)-yl)-2-(3,4-dihydro-2H-pyrrolo[3′,2′:5,6]pyrido[2,3-b][1,4]oxazepin-1(7H)-yl)-N-((4-((((1r,3r)-3-methoxycyclobutyl)methyl)amino)-3-nitrophenyl)sulfonyl)benzamide] was tested, and the EC50 (RS4;11 cells) was 3.93 nM, the EC50 (Molt-4 cells) was over 10000 nM and the Ki (Bcl-2 protein) was 0.224 nM. The Ki (Bcl-xL protein) was 25.2 nM.

Compound CC1(C)CC(c2ccc(Cl)cc2)=C2CN3CCN(c4ccc(C(=O)NS(=O)(=O)c5ccc(NC[C@H]6C[C@](O)(C7CCC7)C6)c([N+](=O)[O-])c5)c(N5CCCOc6nc7[nH]ccc7cc65)c4)C[C@H]3COCCCO[C@@H]2C1 [Example 15, 4-((4aS,10aR)-14-(4-chlorophenyl)-12,12-dimethyl-1,2,4a,5,8,9,10a,11,13,15-decahydro-7H,12H-benzo[f]pyrazino[2,1-c][1,8]dioxa[4]azacycloundecin-3(4H)-yl)-2-(3,4-dihydro-2H-pyrrolo[3′,2′:5,6]pyrido[2,3-b][1,4]oxazepin-1(7H)-yl)-N-((4-((((1s,3s)-1-hydroxy-[1,1′-bi(cyclobutan)]-3-yl)methyl)amino)-3-nitrophenyl)sulfonyl)benzamide] has an EC50 (RS4;11 cells) of 5.64 nM, an EC50 (Molt-4 cells) of 2550 nM and a Ki (Bcl-2 protein) of 0.552 nM. For the same compound, the Ki (Bcl-xL protein) was 13.9 nM.

With CC1(C)CC(c2ccc(Cl)cc2)=C2CN3CCN(c4ccc(C(=O)NS(=O)(=O)c5ccc(NCC6CCOCC6)c([N+](=O)[O-])c5)c(N5CCCOc6nc7[nH]ccc7cc65)c4)C[C@H]3COCCCO[C@@H]2C1 [Example 1, 4-((4aS,10aR)-14-(4-chlorophenyl)-12,12-dimethyl-1,2,4a,5,8,9,10a,11,13,15-decahydro-7H,12H-benzo[f]pyrazino[2,1-c][1,8]dioxa[4]azacycloundecin-3(4H)-yl)-2-(3,4-dihydro-2H-pyrrolo[3′,2′:5,6]pyrido[2,3-b][1,4]oxazepin-1(7H)-yl)-N-((3-nitro-4-(((tetrahydro-2H-pyran-4-yl)methyl)amino)phenyl)sulfonyl)benzamide] the EC50 (RS4;11 cells) was 4.01 nM, the EC50 (Molt-4 cells) was over 10000 nM and the Ki (Bcl-2 protein) was 0.459 nM. The Ki (Bcl-xL protein) was 19.4 nM.

CC1(C)CC(c2ccc(Cl)cc2)=C2CN3CCN(c4ccc(C(=O)NS(=O)(=O)c5ccc(NC[C@H]6CC[C@](C)(O)CO6)c([N+](=O)[O-])c5)c(N5CCCOc6nc7[nH]ccc7cc65)c4)C[C@H]3COCCCO[C@@H]2C1 [Example 2, 4-((4aS,10aR)-14-(4-chlorophenyl)-12,12-dimethyl-1,2,4a,5,8,9,10a,11,13,15-decahydro-7H,12H-benzo[f]pyrazino[2,1-c][1,8]dioxa[4]azacycloundecin-3(4H)-yl)-2-(3,4-dihydro-2H-pyrrolo[3′,2′:5,6]pyrido[2,3-b][1,4]oxazepin-1(7H)-yl)-N-((4-((((2R,5S)-5-hydroxy-5-methyltetrahydro-2H-pyran-2-yl)methyl)amino)-3-nitrophenyl)sulfonyl)benzamide] was tested, and the EC50 (RS4;11 cells) was 0.651 nM, the EC50 (Molt-4 cells) was 1220 nM and the Ki (Bcl-2 protein) was 0.0489 nM. It also gave a Ki (Bcl-xL protein) of 9.3 nM.

Compound CC1(C)CC(c2ccc(Cl)cc2)=C2CN3CCN(c4ccc(C(=O)NS(=O)(=O)c5ccc(OCC6(F)CCN(C7COC7)CC6)c([N+](=O)[O-])c5)c(N5CCCOc6nc7[nH]ccc7cc65)c4)C[C@H]3COCCCO[C@@H]2C1 [Example 19, 4-((4aS,10aR)-14-(4-chlorophenyl)-12,12-dimethyl-1,2,4a,5,8,9,10a,11,13,15-decahydro-7H,12H-benzo[f]pyrazino[2,1-c][1,8]dioxa[4]azacycloundecin-3(4H)-yl)-2-(3,4-dihydro-2H-pyrrolo[3′,2′:5,6]pyrido[2,3-b][1,4]oxazepin-1(7H)-yl)-N-((4-((4-fluoro-1-(oxetan-3-yl)piperidin-4-yl)methoxy)-3-nitrophenyl)sulfonyl)benzamide] has an EC50 (RS4;11 cells) of 0.881 nM, an EC50 (Molt-4 cells) of 132 nM and a Ki (Bcl-2 protein) of 0.475 nM. For the same compound, the Ki (Bcl-xL protein) was 2.23 nM.

CC1(C)CC(c2ccc(Cl)cc2)=C2CN3CCN(c4ccc(C(=O)NS(=O)(=O)c5ccc(NCC6(O)COC6)c([N+](=O)[O-])c5)c(N5CCCOc6nc7[nH]ccc7cc65)c4)C[C@H]3COCCCO[C@@H]2C1 [Example 17, 4-((4aS,10aR)-14-(4-chlorophenyl)-12,12-dimethyl-1,2,4a,5,8,9,10a,11,13,15-decahydro-7H,12H-benzo[f]pyrazino[2,1-c][1,8]dioxa[4]azacycloundecin-3(4H)-yl)-2-(3,4-dihydro-2H-pyrrolo[3′,2′:5,6]pyrido[2,3-b][1,4]oxazepin-1(7H)-yl)-N-((4-(((3-hydroxyoxetan-3-yl)methyl)amino)-3-nitrophenyl)sulfonyl)benzamide] was tested, and the EC50 (RS4;11 cells) was 2.82 nM, the EC50 (Molt-4 cells) was 723 nM and the Ki (Bcl-2 protein) was 0.761 nM. For the same compound, the Ki (Bcl-xL protein) was 6.31 nM.

In the case of CC1(C)CC(c2ccc(Cl)cc2)=C2CN3CCN(c4ccc(C(=O)NS(=O)(=O)c5ccc(NCC6(F)CCN(C7COC7)CC6)c([N+](=O)[O-])c5)c(N5CCCOc6nc7[nH]ccc7cc65)c4)C[C@H]3COCCCO[C@@H]2C1 [Example 39, 4-((4aS,10aR)-14-(4-chlorophenyl)-12,12-dimethyl-1,2,4a,5,8,9,10a,11,13,15-decahydro-7H,12H-benzo[f]pyrazino[2,1-c][1,8]dioxa[4]azacycloundecin-3(4H)-yl)-2-(3,4-dihydro-2H-pyrrolo[3′,2′:5,6]pyrido[2,3-b][1,4]oxazepin-1(7H)-yl)-N-((4-(((4-fluoro-1-(oxetan-3-yl)piperidin-4-yl)methyl)amino)-3-nitrophenyl)sulfonyl)benzamide], the EC50 (RS4;11 cells) is reported as 1.66 nM, the EC50 (Molt-4 cells) is reported as 453 nM and the Ki (Bcl-2 protein) is reported as 0.194 nM. The Ki (Bcl-xL protein) was 5.25 nM.
